pIC50: −log10 of the molar value. Entries after “also recorded” stand apart in the source; their conditions may differ.
Legend:
[1] = Antioxidant activity, DPPH spectrophotometric method; conditions: for antioxidant activity (reaction with DPPH): DPPH about 25 μM, antioxidant 60 μM; for reaction time (time for reaching the plateau): DPPH, absorbance at 515 nm
Method: The antioxidant activity assays were carried out according to the 2,2-diphenyl-1-picrylhydrazyl (DPPH) spectrophotometric method.[34] Initially, to assess whether the compounds had antioxidant activity and to define the time required by each antioxidant to reach the steady state, the reduction in absorbance over time at 515 nm of a solution of DPPH mixed with the tested compound was recorded until reaching the plateau. […] The value of EC50 can be extrapolated by plotting the percentage of residual DPPH at the steady state as a function of the molar ratio of the antioxidant to initial DPPH.
2,2-Diphenyl-1-picrylhydrazyl (DPPH), MeOH, and ascorbic acid, used as the reference standard, were purchased from Sigma-Aldrich. Micropipettes Labmate (BRAND Dig. 10–100 μL; Dig. 100–1000 μL) and Transferpette (HIGH TECH LAB LM200: 20–200 μL; LM5000: 1000–5000 μL) were used to collect the samples. The assays were carried out by a double beam UV–vis Lambda 40 Perkin Elmer spectrophotometer using optical polystyrene cuvettes (10 × 10 × 45 mm, 340–800 nm optical transparency); each measure was repeated at least in triplicate. For data processing, UV-WIN Lab version 2.0 (Perkin Elmer Corporation) was used. The antioxidant activity of the tested compounds was evaluated by the DPPH method[34] based on the ability of antioxidant compounds to react with the stable radical DPPH, which has a maximum absorption at about 515 nm. Thus, by measuring the decrease in absorbance over time of DPPH solutions to which increasing amounts of the tested compound are added, the antioxidant activity of the compound can be determined.
[…]. To 2.90 mL of MeOH, 60 μL of a DPPH solution in MeOH (∼1.2 mM) and 40 μL of an antioxidant solution in MeOH (4.5 mM) were added to have in the cuvette concentrations of DPPH equal to about 25 μM and of antioxidant equal to 60 μM. The exact DPPH concentration was calculated through the Lambert–Beer relation, known the extinction coefficient of DPPH at 515 nm, equal to 1.25 × 10^4.[34] The absorbance was recorded until the plateau was reached.
. To obtain the initial DPPH concentration, 2.94 mL of MeOH and 60 μL of the DPPH solution in MeOH (∼1.2 mM) were placed in a polystyrene cuvette and the absorbance was recorded at 515 nm. The exact initial DPPH concentration was calculated through the Lambert–Beer relation. For subsequent measurements, the cuvettes were set up by introducing the opportune volume of MeOH to reach a total volume of 3 mL, 60 μL of the DPPH solution in MeOH (∼1.2 mM, to have a final concentration of ∼25 μM), and the appropriate volumes of the antioxidant stock solution in MeOH to have final concentrations between 1.5 and 12 μM for 20 and between 5 and 60 μM for 18 and 30; the absorbance was recorded at 515 nm at the plateau and then after 1 min for compound 20 and after 90 min for compounds 18 and 30. Each measure was repeated four times. With absorbance data, the percentages of residual DPPH at steady state were obtained using the following equation: [drawing 3] where Ac is the average of absorbance in the presence of antioxidant at plateau and A0 is the average of the initial absorbance of DPPH.
The same procedure was performed using ascorbic acid as the antioxidant at cuvette concentrations between 1.5 and 18 μM, recording the absorbance at 515 nm after 2 min from the preparation of the cuvettes.

U-87 MG cell line = assay: Cytotoxicity, MTT cell viability assay; conditions: 24 h
Method: Data represent the absorbance % (± SD) relative to untreated cells in the same experiment and standardized to 100%. All data points were performed in triplicate and at least three independent experiments.
After an incubation time of 24 h, the medium was replaced by a new fresh medium containing 0.5 mg/mL MTT (Sigma, Deisenhofen, Germany). After 2 h at 37 °C in 5% CO2, unreacted dye was removed and cells were dissolved by DMSO (Merck, Darmstadt, Germany). Absorbance was read at 570 nm by a microtiter spectrophotometer plate reader. The data were expressed as absorbance relative to untreated cells in the same experiment and standardized to 100%. All data points were performed in triplicate and at least three independent experiments.

[2] = target: T1, Electrophorus electricus AChE (EeAChE) (Electrophorus electricus, UniProt O42275); assay: biochemical; conditions: 100 μM acetylthiocholine; read-out: EeAChE, IC50 ± SE
T1 construct: purchased Sigma-Aldrich (Milan, Italy)
Method: The recorded data were analyzed with the enzyme kinetic module of SigmaPlot. All measurements were replicated three times, and the IC50 value obtained was confirmed by repeating the experiment twice.
For this purpose, eight different inhibitor solutions were prepared. […] The recorded data were analyzed by the enzyme kinetic module of SigmaPlot plotting the percentages of inhibition as a function of the different concentrations of the inhibitor, expressed in logarithmic scale, to obtain the sigmoid graph, from which it was possible to determine the IC50 value of the tested compound. The IC50 was confirmed by repeating the experiment twice.

T1 sequence (O42275 24-633): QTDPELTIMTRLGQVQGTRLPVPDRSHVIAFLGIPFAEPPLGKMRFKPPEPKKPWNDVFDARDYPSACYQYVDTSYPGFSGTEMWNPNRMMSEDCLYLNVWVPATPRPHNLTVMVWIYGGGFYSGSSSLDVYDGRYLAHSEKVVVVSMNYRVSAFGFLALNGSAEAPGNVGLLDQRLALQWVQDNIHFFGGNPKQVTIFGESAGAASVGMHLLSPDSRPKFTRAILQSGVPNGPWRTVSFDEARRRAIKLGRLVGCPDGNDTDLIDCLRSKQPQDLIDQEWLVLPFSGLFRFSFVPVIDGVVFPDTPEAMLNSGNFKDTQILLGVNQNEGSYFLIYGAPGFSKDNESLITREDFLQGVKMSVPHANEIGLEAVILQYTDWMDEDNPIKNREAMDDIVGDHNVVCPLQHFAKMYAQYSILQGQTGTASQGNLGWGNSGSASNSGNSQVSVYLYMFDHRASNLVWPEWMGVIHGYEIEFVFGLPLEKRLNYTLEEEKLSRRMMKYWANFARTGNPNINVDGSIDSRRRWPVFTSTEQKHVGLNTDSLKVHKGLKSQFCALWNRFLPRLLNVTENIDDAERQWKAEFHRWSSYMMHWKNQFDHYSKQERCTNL

Row | SMILES | antioxidant activity (reaction with DPPH) [1] | reaction time (time for reaching the plateau) [1] [min] | cytotoxicity on U-87 MG cells (U-87 MG cell line; concentrations up to 10 μM) | pIC50 [2] | cytotoxic effect on U-87 MG cells (U-87 MG cell line; 1 to 50 μM)
1 | COc1cc(CNCCCCCCNc2ncccn2)ccc1O [Compound 18, 2-Methoxy-4-(((6-(pyrimidin-2-ylamino)hexyl)amino)methyl)phenol] | antioxidant properties; also recorded: showed antioxidant activity; also recorded: possess antioxidant activity | 90 |  |  | 
2 | Oc1cccc(CNCCCCCCNc2ncccn2)c1 [Compound 19, 3-(((6-(Pyrimidin-2-ylamino)hexyl)amino)methyl)phenol] | did not show a significant ability to interact with DPPH; also recorded: no significant antioxidant capacity |  |  |  | 
3 | Oc1cccc(CNCCCCCCNc2ncccn2)c1O [Compound 20, 3-(((6-(Pyrimidin-2-ylamino)hexyl)amino)methyl)benzene-1,2-diol] | antioxidant properties; also recorded: showed antioxidant activity; also recorded: possess antioxidant activity; also recorded: most efficient antioxidant | 1 | not cytotoxic | 6.21 | 
4 | c1cnc(NCCCCCCNCc2c[nH]c3ccccc23)nc1 [Compound 22, N^1-((1H-Indol-3-yl)methyl)-N^6-(pyrimidin-2-yl)hexane-1,6-diamine] |  |  |  |  | more pronounced cytotoxic effect
5 | COc1cc(CNCCCCCCNc2ccccn2)ccc1O [Compound 30, 2-Methoxy-4-(((6-(pyridin-2-ylamino)hexyl)amino)methyl)phenol] | antioxidant properties; also recorded: showed antioxidant activity; also recorded: possess antioxidant activity | 90 |  |  | 

Source: PMC8569681, “New Pyrimidine and Pyridine Derivatives as Multitarget Cholinesterase Inhibitors: Design, Synthesis, and In Vitro and In Cellulo Evaluation” (ACS Chemical Neuroscience, 2021)
